These are literature values, as cited in patent publication US6890568B2, “Method for management of blood glucose levels” (priority 1999, dated 2005).

The data set has as its system insulin-deficient, streptozotocin-induced rat model of diabetes. Particulars: vanadate in the drinking water.

With `[O]=[V]([O-])([O-])[O-]` [vanadate], the control of diabetes result was “shown to control diabetes” and the side effects entry is “life-threatening diarrhea”.
